Source: patent publication US20100267744A1, “Pharmaceutical Compositions” (Vertex Pharmaceuticals Incorporated, priority 2006, published 2010)

What was measured:
[1] = assay type: physicochemical
Description: The manufacture of an amorphous solid dispersion containing VX-950 presented several challenges. […] Therefore, an appropriate solvent or solvent mixture is crucial to optimizing the processing and production of a solid dispersion.

[2] = Chemical reactivity of VX-950 with alcohol solvents; assay type: physicochemical; conditions: MeOH, EtOH, iPrOH
Description: The manufacture of an amorphous solid dispersion containing VX-950 presented several challenges. […] Therefore, an appropriate solvent or solvent mixture is crucial to optimizing the processing and production of a solid dispersion. In preferred processes, the solvent includes a volatile solvent. In some embodiments, the solvent includes a mixture of volatile solvents. Preferable solvents include those that can dissolve both VX-950 and the polymers. Suitable solvents include those described above, for example, methylene chloride, acetone, etc. In more preferred processes, the solvent is a mixture of methylene chloride and acetone. The percent weight ratio of methylene chloride:acetone can be for example, about 100:0, about 90:10, about 80:20, about 70:30, about 60:40, and is preferably about 80:20 or about 70:30. The solvent or solvent mixture can also contain a non volatile solvent, such as glacial acetic acid. The organic acid or polar solvent solvent can be, e.g., up to about 5%, up to about 10%, or up to about 15% by weight of the solvent mixture. For example, a solvent mixture can contain a percent weight ratio of methylene chloride:acetone:glacial acetic acid of about 67:28:5 or 63:27:10. […] Such a solvent should not contain an OH group or a similarly reactive moiety. In these processes, therefore, a preferred solvent is other than an alcohol.

in vivo = conditions: rat, po

aqueous solubility [1]: virtually undetectable
pH dependence of aqueous solubility [1]: not pH-dependent
solubility in water [1]: highly insoluble
bioavailability (in vivo): < 0.5%
Compound: CCC[C@H](NC(=O)[C@@H]1[C@H]2CCC[C@H]2CN1C(=O)[C@@H](NC(=O)[C@@H](NC(=O)c1cnccn1)C1CCCCC1)C(C)(C)C)C(=O)C(=O)NC1CC1 [VX-950]
solubility in water or most other conventional organic solvents [1]: does not dissolve to a significant amount
chemical reactivity with alcohols [2]: has shown chemical reactivity with some alcohols
